# In PubChem BioAssay AID328 (DTP/NCI, 2004):
# Values joined by “and” are separate entries in the source; they are usually repeats but may differ in a detail not shown here. Equal entries are not always repeated. Inconclusive results and toxic doses are left out.
# Tested on: BDF1 mice, P388 leukemia ip, median survival T/C
# Assay: NCI In Vivo Anticancer Drug Screen. Data for tumor model P388 Leukemia (intraperitoneal) in B6D2F1 (BDF1) mice
# Details: endpoint: median survival time, higher = longer survival
# In short: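 T/C = treated-group survival ÷ vehicle-control survival; tumour transplanted into mice before dosing.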
# [1] = dose: 100.0 mg/kg/injection, schedule: Q01DX009 (ip), vehicle: saline with Tween-80
# [2] = dose: 100.0 mg/kg/injection, schedule: Q04DX003 (ip), vehicle: saline with Tween-80
# [3] = dose: 200.0 mg/kg/injection, schedule: Q01DX009 (ip), vehicle: saline with Tween-80
# [4] = dose: 200.0 mg/kg/injection, schedule: Q04DX003 (ip), vehicle: saline with Tween-80
# [5] = dose: 400.0 mg/kg/injection, schedule: Q01DX009 (ip), vehicle: saline with Tween-80
# [6] = dose: 400.0 mg/kg/injection, schedule: Q04DX003 (ip), vehicle: saline with Tween-80
# [7] = dose: 50.0 mg/kg/injection, schedule: Q01DX009 (ip), vehicle: saline with Tween-80
structure (smiles),measurement,setting,value
CNC=O,T/C,"dose: 7.5 mg/kg/injection, schedule: Q01DX010 (ip), vehicle: saline",100 % of control
same,T/C,"dose: 15.0 mg/kg/injection, schedule: Q01DX010 (ip), vehicle: saline",104 % of control and 109 % of control
same,T/C,"dose: 30.0 mg/kg/injection, schedule: Q01DX010 (ip), vehicle: saline",104 % of control and 118 % of control
same,T/C,"dose: 60.0 mg/kg/injection, schedule: Q01DX010 (ip), vehicle: saline",109 % of control and 113 % of control
same,T/C,"dose: 300.0 mg/kg/injection, schedule: Q01DX010 (ip), vehicle: saline",154 % of control
same,T/C,"dose: 455.0 mg/kg/injection, schedule: Q01DX010 (ip), vehicle: saline",154 % of control
same,T/C,"dose: 680.0 mg/kg/injection, schedule: Q01DX010 (ip), vehicle: saline",91 % of control
O=C(O)c1ccccc1C(=O)Nc1ccc([N+](=O)[O-])cc1Cl,T/C,"dose: 50.0 mg/kg/injection, schedule: Q04DX003 (ip), vehicle: Klucel (hydroxypropylcellulose) (HPC)",100 % of control
same,T/C,"dose: 100.0 mg/kg/injection, schedule: Q04DX003 (ip), vehicle: Klucel (hydroxypropylcellulose) (HPC)",100 % of control
same,T/C,"dose: 200.0 mg/kg/injection, schedule: Q04DX003 (ip), vehicle: Klucel (hydroxypropylcellulose) (HPC)",95 % of control
OCC12COCN1COC2,T/C,"dose: 50.0 mg/kg/injection, schedule: Q01DX009 (ip), vehicle: saline",104 % of control
same,T/C,"dose: 100.0 mg/kg/injection, schedule: Q01DX009 (ip), vehicle: saline",104 % of control
c1ccc(-c2nnc3oc(-c4ccco4)nn23)cc1,T/C,[1],91 % of control
same,T/C,[2],90 % of control
same,T/C,[3],108 % of control
same,T/C,[4],100 % of control
same,T/C,[5],100 % of control
same,T/C,[6],95 % of control
COC(=O)C1OC(C)(C)OC1C(=O)OC (centres undefined),T/C,"dose: 100.0 mg/kg/injection, schedule: Q04DX002 (ip), vehicle: saline with Tween-80",90 % of control
same,T/C,"dose: 200.0 mg/kg/injection, schedule: Q04DX002 (ip), vehicle: saline with Tween-80",97 % of control
same,T/C,"dose: 400.0 mg/kg/injection, schedule: Q04DX002 (ip), vehicle: saline with Tween-80",90 % of control
Cc1cc(Cl)ccc1NS(=O)(=O)c1ccc(Br)cc1,T/C,[2],90 % of control
same,T/C,[4],90 % of control
same,T/C,[6],95 % of control
Cc1ccc(C)c(Nc2cc(=O)[nH]c(=O)[nH]2)c1,T/C,"dose: 100.0 mg/kg/injection, schedule: Q01DX001 (ip), vehicle: Klucel (hydroxypropylcellulose) (HPC)",98 % of control
same,T/C,"dose: 200.0 mg/kg/injection, schedule: Q01DX001 (ip), vehicle: Klucel (hydroxypropylcellulose) (HPC)",103 % of control
Nc1nc(SCc2cccc(Br)c2)c2ncn(C3OC(CO)C(O)C3O)c2n1 (centres undefined),T/C,[2],104 % of control
same,T/C,[4],122 % of control
CCCCCCC(=O)/C=C/c1ccc(N(C)C)cc1,T/C,[1],97 % of control
same,T/C,[3],97 % of control
same,T/C,[5],93 % of control
CS(=O)C/C(=C/CCCl)c1cccs1 (centres undefined),T/C,[7],105 % of control
same,T/C,[1],94 % of control
same,T/C,[3],105 % of control
O=C(NO)c1cccnc1,T/C,"dose: 300.0 mg/kg/injection, schedule: Q01DX010 (ip), vehicle: water",119 % of control
same,T/C,"dose: 400.0 mg/kg/injection, schedule: Q01DX010 (ip), vehicle: water",109 % of control and 118 % of control
same,T/C,"dose: 600.0 mg/kg/injection, schedule: Q01DX010 (ip), vehicle: water",150 % of control and 154 % of control
SC1(S)CN2CCC1CC2,T/C,"dose: 6.25 mg/kg/injection, schedule: Q04DX003 (ip), vehicle: saline",105 % of control
same,T/C,"dose: 12.5 mg/kg/injection, schedule: Q04DX003 (ip), vehicle: saline",105 % of control
same,T/C,"dose: 25.0 mg/kg/injection, schedule: Q04DX003 (ip), vehicle: saline",105 % of control
COc1ccc(C2=C(c3ccccc3)C(c3ccccc3)=C(c3ccc(OC)cc3)C2=O)cc1,T/C,[7],103 % of control
same,T/C,[1],89 % of control
same,T/C,[3],99 % of control
same,T/C,[5],94 % of control
